Legend:
[1] = biological target: PRC2 enzyme (Homo sapiens (Human), UniProt O75530); experiment: PRC2 enzyme activity, TR-FRET method; type: biochemical
Outline: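 Enzyme preincubated with compound 30 min at room temperature; reaction started with biotin-labeled histone H3 peptide and SAM, run 4 h at room temperature.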

[2] = system: Pfeiffer cells; experiment: Growth inhibition of Pfeiffer cells in a long term (14 days), CellTiter-Glo; type: cell-based, Human; conditions: Homo sapiens, 336 h, 14 days, read-out: Pfeiffer (14 days) IC50
Description: In a CO2 cell incubator (37° C., 5% CO2), Human diffuse large B-cell lymphoma (DLBCL) cell line, pfeiffer (obtained from ATCC, CRL-2632) were incubated with RPMI 1640 medium (Gibco, purchased from Life Technologies, 22400-089) containing 10% fetal bovine serum (Gibco, purchased from Life Technologies, 10099-141) and 1% antibiotics (penicillin and streptomycin, purchased from Life Technologies, 10378016). […] After seeding the cells, they were placed in a CO2 incubator and allowed to stand for 1 hour. In a 24-well plate containing cells, 2 μL of three-fold gradient of the compounds at 9 different concentrations or DMSO were added to each well, such that the final concentration of the compounds was 0.003-20 μM or 0.3-2000 nM, and the final concentration of DMSO was 0.2%. At day 4, day 7, and day 11 of compound treatment, the fresh medium and compounds were changed, and the cell density of the DMSO control well was diluted to 2*10E5 cells/mL. The cell dilution ratio for other compound wells was the same as that of the DMSO control well. Cell viability was determined by using CellTiter-Glo reagent (purchased from Promega Inc., G7572): cells treated with the compounds for 14 days were transferred to a white 384-well plate (OptiPlate-384, purchased from PerkinElmer, 6007299) at 40 μL/well, an equal volume of CellTiter-Glo reagent was further added. After incubating at room temperature for 10 min, the cold luminescence signal was detected with a multifunctional microplate reader EnVision (PerkinElmer) at a wavelength of 400 to 700 nm. Data were analyzed using GraphPad Prism 5.0 software, and IC50 values were obtained.

[3] = system: Karpas-422 cells; experiment: Growth inhibition of Karpas-422 cells in a long term (11 days), CellTiter-Glo; type: cell-based, Human; conditions: Homo sapiens, 264 h; Karpas-422, 11 days; read-out: Karpas-422 (11 days) IC50

PRC2 enzyme, sequence (O75530 whole entry): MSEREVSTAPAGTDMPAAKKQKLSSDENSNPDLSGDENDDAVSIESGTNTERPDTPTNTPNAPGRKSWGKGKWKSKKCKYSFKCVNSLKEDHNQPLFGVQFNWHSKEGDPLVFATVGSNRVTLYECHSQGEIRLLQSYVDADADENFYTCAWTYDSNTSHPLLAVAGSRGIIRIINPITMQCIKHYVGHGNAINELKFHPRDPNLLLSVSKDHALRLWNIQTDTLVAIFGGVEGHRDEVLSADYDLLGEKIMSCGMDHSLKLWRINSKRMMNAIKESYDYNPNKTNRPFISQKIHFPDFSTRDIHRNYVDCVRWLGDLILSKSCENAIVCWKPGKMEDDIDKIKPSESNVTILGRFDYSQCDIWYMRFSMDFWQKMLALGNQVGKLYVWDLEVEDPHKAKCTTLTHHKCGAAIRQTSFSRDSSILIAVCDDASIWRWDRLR
PRC2 enzyme, sequence (Q15910 whole entry partner): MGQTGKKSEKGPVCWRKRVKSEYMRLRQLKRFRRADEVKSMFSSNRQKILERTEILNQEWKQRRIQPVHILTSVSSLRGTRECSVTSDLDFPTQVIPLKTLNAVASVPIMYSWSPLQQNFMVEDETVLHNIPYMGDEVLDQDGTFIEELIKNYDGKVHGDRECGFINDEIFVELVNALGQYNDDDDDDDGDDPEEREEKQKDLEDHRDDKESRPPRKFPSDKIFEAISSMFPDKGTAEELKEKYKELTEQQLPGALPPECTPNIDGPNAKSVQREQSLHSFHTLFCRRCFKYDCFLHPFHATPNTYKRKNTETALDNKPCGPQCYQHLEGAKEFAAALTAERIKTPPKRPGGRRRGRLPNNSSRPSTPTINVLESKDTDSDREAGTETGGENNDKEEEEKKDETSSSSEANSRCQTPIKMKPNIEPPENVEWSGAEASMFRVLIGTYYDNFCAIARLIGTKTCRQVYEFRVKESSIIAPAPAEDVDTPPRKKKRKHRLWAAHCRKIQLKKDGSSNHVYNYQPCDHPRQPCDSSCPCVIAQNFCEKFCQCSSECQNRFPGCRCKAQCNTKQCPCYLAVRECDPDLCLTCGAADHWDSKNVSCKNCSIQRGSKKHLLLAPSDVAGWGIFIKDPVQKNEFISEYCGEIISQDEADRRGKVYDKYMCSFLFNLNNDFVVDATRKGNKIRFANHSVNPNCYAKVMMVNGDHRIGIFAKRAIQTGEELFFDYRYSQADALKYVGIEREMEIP
PRC2 enzyme, sequence (Q15022 whole entry partner): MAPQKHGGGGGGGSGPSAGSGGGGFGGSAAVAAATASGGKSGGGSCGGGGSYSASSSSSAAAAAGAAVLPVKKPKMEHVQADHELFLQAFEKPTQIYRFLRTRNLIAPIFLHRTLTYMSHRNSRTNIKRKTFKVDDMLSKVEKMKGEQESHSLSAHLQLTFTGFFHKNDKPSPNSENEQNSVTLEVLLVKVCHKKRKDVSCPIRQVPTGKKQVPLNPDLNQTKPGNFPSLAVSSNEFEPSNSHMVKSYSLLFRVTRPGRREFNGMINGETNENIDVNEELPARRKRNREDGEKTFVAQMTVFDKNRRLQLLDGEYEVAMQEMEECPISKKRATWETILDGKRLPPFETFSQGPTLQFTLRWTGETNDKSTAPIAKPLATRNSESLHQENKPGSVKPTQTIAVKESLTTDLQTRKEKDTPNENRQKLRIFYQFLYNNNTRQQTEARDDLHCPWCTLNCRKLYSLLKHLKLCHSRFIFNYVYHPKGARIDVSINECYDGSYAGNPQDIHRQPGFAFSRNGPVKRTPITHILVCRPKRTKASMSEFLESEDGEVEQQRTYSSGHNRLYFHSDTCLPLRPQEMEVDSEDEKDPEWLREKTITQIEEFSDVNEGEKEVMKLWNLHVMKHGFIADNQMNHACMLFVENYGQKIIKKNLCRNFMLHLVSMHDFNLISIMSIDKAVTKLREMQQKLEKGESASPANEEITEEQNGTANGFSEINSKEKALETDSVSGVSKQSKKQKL

IC50 [1]: 19 nM
IC50 [2]: 1 nM
IC50 [3]: 13 nM
Compound: CS(=O)(=O)N1CC=C(c2cnc(NCc3c(F)ccc4c3CCO4)n3cnnc23)CC1 [E-Y13]
